According to US8178553B2, “Compounds for the treatment of inflammatory disorders” (Schering Corporation, priority 2006, dated 2012):
pKi: −log10 of the molar value. Like-named read-outs stand apart in the source and are kept apart here.

Target: T1, purified catalytic domain of recombinant human TACE (rhTACEc) (Homo sapiens, UniProt P78536, N452Q/S266A)
T1 construct: rhTACEc, Residue 215 to 477 with two mutation (S266A and N452Q) and a 6xHis tail; 6xHis (C); made in house; host or cells: baculovirus/Hi5 insect cells
Test: TACE kinetic assay, cleavage of internally quenched fluorescent peptide substrate SPDL-3
Assay type: biochemical
Description: TACE activity is determined by a kinetic assay measuring the rate of increase in fluorescent intensity generated by TACE catalyzed cleavage of an internally quenched peptide substrate (SPDL-3). […] It is purified from the baculovirus/Hi5 cells expression system using affinity chromatography. […] MCA is (7-Methoxycoumarin-4-yl)acetyl. Dpa is N-3-(2,4-Dinitrophenyl)-L-2,3-diaminopropionyl.
A 50 μl assay mixture contains 20 mM HEPES, pH 7.3, 5 mM CaCl2, 100 µM ZnCl2, 2% DMSO, 0.04% Methylcellulose, 30 μM SPDL-3, 70 pM rhTACEc and a test compound. RhTACEc is pre-incubated with the testing compound for 90 min. at 25° C. Reaction is started by addition of the substrate. […] Rate of enzymatic reaction is shown as Units per second. Effect of a test compound is shown as % of TACE activity in the absence of the compound.

[1] = TACE inhibition, Table 1, read-out: Ki Rating
[2] = Specific TACE inhibitory activity of representative compounds, read-out: Ki

T1 sequence (P78536 215-477 S266A/N452Q): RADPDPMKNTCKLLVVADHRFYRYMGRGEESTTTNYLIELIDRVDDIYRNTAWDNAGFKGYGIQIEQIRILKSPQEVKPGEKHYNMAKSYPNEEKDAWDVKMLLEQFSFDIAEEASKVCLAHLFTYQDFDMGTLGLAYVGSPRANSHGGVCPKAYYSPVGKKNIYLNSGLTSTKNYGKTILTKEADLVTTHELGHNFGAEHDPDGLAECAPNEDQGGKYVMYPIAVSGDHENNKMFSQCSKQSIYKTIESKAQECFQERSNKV

Compound | pKi [1] | pKi [2] | pKi
CCOC(=O)CC1(CN2Cc3ccc(OC)cc3C2=O)NC(=O)NC1=O (centres unmarked) [Compound 1] | 7.00 to 8.00 | – | –
O=C1NC(=O)C(CN2Cc3ccsc3C2=O)(c2ccc(F)cc2)N1 (centres unmarked) [Compound 26] | 7.00 to 8.00 | – | –
COc1ccc2c(c1)C(=O)N(CC1(CC(=O)N3CCC(C#N)(c4ccccc4)CC3)NC(=O)NC1=O)C2 (centres unmarked) [Compound 16] | 7.00 to 8.00 | – | –
COc1ccc2c(c1)C(=O)N(CC1(CC(=O)NC(C)C)NC(=O)NC1=O)C2 (centres unmarked) [Compound 7] | 7.00 to 8.00 | – | –
COc1ccc2c(c1)C(=O)N(CC1(CC(=O)N3Cc4ccccc4C3)NC(=O)NC1=O)C2 (centres unmarked) [Compound 17] | 7.00 to 8.00 | – | –
NC(=O)Cc1ccc2c(c1)CN(CC1(c3ccc(F)cc3)NC(=O)NC1=O)C2=O (centres unmarked) [Compound 37] | 7.00 to 8.00 | – | –
CN(C)CC#Cc1ccc([C@]2(CN3Cc4ccc(O)cc4C3=O)NC(=O)NC2=O)cc1 [Compound 19] | 7.00 to 8.00 | – | –
COc1ccc2c(c1)C(=O)N(CC1(c3ccc(-c4ccccc4CCN)cc3)NC(=O)NC1=O)C2 (centres unmarked) [Compound 96] | 7.00 to 8.00 | – | –
COC(=O)c1ncccc1C(=O)C[C@]1(CN2Cc3ccc(OC)cc3C2=O)NC(=O)NC1=O [Compound 45] | 7.00 to 8.00 | – | –
COc1ccc2c(c1)C(=O)N(CC1(CC(=O)N[C@@H](C)c3ccccc3)NC(=O)NC1=O)C2 (some centres unmarked) [Compound 4] | 7.00 to 8.00 | – | –
COc1ccc2c(c1)C(=O)N(CC1(c3ccc(C(=O)N(C)C)cc3)NC(=O)NC1=O)C2 (centres unmarked) [Compound 34] | 7.00 to 8.00 | – | –
COc1ccc2c(c1)C(=O)N(C[C@@]1(CCc3ccc(F)c(C(N)=O)c3)NC(=O)NC1=O)C2 [Compound 47] | 7.00 to 8.00 | – | –
N#Cc1ccc2c(c1)CN(CC1(c3ccc(F)cc3)NC(=O)NC1=O)C2=O (centres unmarked) [Compound 35] | 7.00 to 8.00 | – | –
COc1ccc2c(c1)C(=O)N(CC1(CC(=O)NCC(C)C)NC(=O)NC1=O)C2 (centres unmarked) [Compound 11] | 7.00 to 8.00 | – | –
O=C1NC(=O)C(CN2Cc3ncccc3C2=O)(c2ccc(F)cc2)N1 (centres unmarked) [Compound 27] | < 6.00 | – | –
COc1ccc2c(c1)C(=O)N(CC1(CC(=O)N3CCN(C)CC3)NC(=O)NC1=O)C2 (centres unmarked) [Compound 13] | 7.00 to 8.00 | – | –

Compound | pKi [1] | pKi [2] | pKi
COc1ccc2c(c1)C(=O)N(C[C@@]1(c3ccc(OC(=O)N(C)C)cc3)NC(=O)NC1=O)C2 [Compound 93] | – | – | > 8.00
COc1ccc2c(c1)C(=O)N(C[C@]1(c3ccc(C#Cc4ccccn4)cc3)NC(=O)NC1=O)C2 [Compound 21] | 7.00 to 8.00 | – | –
COC(=O)c1cc(-c2ccc([C@]3(CN4Cc5ccc(OC)cc5C4=O)NC(=O)NC3=O)cc2)cnc1N [Compound 52] | > 8.00 | – | –
COC(=O)c1ccc([C@]2(CN3Cc4ccc(OC)cc4C3=O)NC(=O)NC2=O)cc1 [Compound 41] | > 8.00 | – | –
COc1ccc2c(c1)C(=O)N(C[C@@]1(c3ccc(-c4ccnc(C(N)=O)c4)cc3)NC(=O)NC1=O)C2 [Compound 23] | > 8.00 | – | –
COc1ccc2c(c1)C(=O)N(C[C@@]1(c3ccc(S(C)(=O)=O)cc3)NC(=O)NC1=O)C2 [Compound 43] | > 8.00 | 9.59 | –
COc1ccc2c(c1)C(=O)N(C[C@@]1(c3cc4nc(S(C)(=O)=O)ccc4o3)NC(=O)NC1=O)C2 [Compound 50] | > 8.00 | 8.98 | –
O=C1NC(=O)C(CN2Cc3c[nH]c(=O)cc3C2=O)(c2ccc(F)cc2)N1 (centres unmarked) [Compound 29] | 7.00 to 8.00 | – | –
CNC(=O)c1cccc(Oc2ccc([C@]3(CN4Cc5ccc(OC)cc5C4=O)NC(=O)NC3=O)cc2)c1 [Compound 89] | > 8.00 | – | –
COc1ccc2c(c1)C(=O)N(C[C@@]1(c3ccc(-c4cnn(C)c4C#N)cc3)NC(=O)NC1=O)C2 [Compound 80] | > 8.00 | – | –
COc1ccc2c(c1)C(=O)N(C[C@@]1(c3ccc(-c4ccc(S(N)(=O)=O)cc4)cc3)NC(=O)NC1=O)C2 [Compound 105] | > 8.00 | – | –
COC(=O)c1cc(C)nc(-c2ccc([C@]3(CN4Cc5ccc(OC)cc5C4=O)NC(=O)NC3=O)cc2)c1 [Compound 53] | > 8.00 | – | –
COc1ccc2c(c1)C(=O)N(C[C@@]1(c3cc4nc(SC)ccc4o3)NC(=O)NC1=O)C2 [Compound 49] | > 8.00 | – | –
COc1ccc2c(c1)CN(CC1(c3ccc(C#CCO)cc3)NC(=O)NC1=O)C2=O (centres unmarked) [Compound 20] | > 8.00 | – | –
COc1ccc2c(c1)C(=O)N(C[C@@]1(c3cc4cc(C#N)cnc4o3)NC(=O)NC1=O)C2 [Compound 38] | > 8.00 | – | –
COc1ccc2c(c1)C(=O)N(CC1(CC(=O)N3CCCCC3)NC(=O)NC1=O)C2 (centres unmarked) [Compound 9] | > 8.00 | – | –

Now from value to compound, other results behind:

pKi [1] | pKi [2] | Compound | pKi
> 8.00 | – | COc1ccc2c(c1)C(=O)N(CC1(CC(=O)N3CCc4ccccc4C3C3CC3)NC(=O)NC1=O)C2 (centres unmarked) [Compound 15] | –
> 8.00 | – | COc1ccc2c(c1)C(=O)N(C[C@@]1(c3ccc(-c4ccc5[nH]nc(C(N)=O)c5c4)cc3)NC(=O)NC1=O)C2 [Compound 78] | –
> 8.00 | – | COc1ccc2c(c1)C(=O)N(CC1(CC(=O)Nc3nc4ccccc4s3)NC(=O)NC1=O)C2 (centres unmarked) [Compound 10] | –
> 8.00 | – | COc1ccc2c(c1)C(=O)N(C[C@@]1(c3ccc(Oc4cccc(C(=O)N5CCOCC5)c4)cc3)NC(=O)NC1=O)C2 [Compound 87] | –
> 8.00 | 9.41 | COc1ccc2c(c1)C(=O)N(C[C@@]1(c3cc4cc(/C=N/O)ccc4o3)NC(=O)NC1=O)C2 [Compound 97] | –
> 8.00 | – | COc1ccc2c(c1)C(=O)N(CC1(CC(=O)N3CCC(Cc4ccccc4)CC3)NC(=O)NC1=O)C2 (centres unmarked) [Compound 14] | –
> 8.00 | – | COc1ccc2c(c1)C(=O)N(CC1(c3ccc(C(=O)O)cc3)NC(=O)NC1=O)C2 (centres unmarked) [Compound 32] | –
> 8.00 | – | CCNC(=O)c1cnc(-c2ccc([C@]3(CN4Cc5ccc(OC)cc5C4=O)NC(=O)NC3=O)cc2)cn1 [Compound 70] | –
> 8.00 | – | COc1ccc2c(c1)C(=O)N(C[C@@]1(c3ccc(OCC#CCO)cc3)NC(=O)NC1=O)C2 [Compound 92] | –
> 8.00 | – | COc1ccc2c(c1)C(=O)N(C[C@@]1(c3cc4cc(C#N)ccc4o3)NC(=O)NC1=O)C2 [Compound 102] | –
> 8.00 | 9.34 | COc1ccc2c(c1)C(=O)N(C[C@@]1(c3ccc(Oc4cccc(C(N)=O)c4)cc3)NC(=O)NC1=O)C2 [Compound 85] | –
> 8.00 | – | COc1ccc2c(c1)C(=O)N(C[C@@]1(c3ccc(-c4cnc(N)c(C(=O)NC5CC5)c4)cc3)NC(=O)NC1=O)C2 [Compound 65] | –
> 8.00 | – | CCOC(=O)c1n[nH]c2ccc(-c3ccc([C@]4(CN5Cc6ccc(OC)cc6C5=O)NC(=O)NC4=O)cc3)cc12 [Compound 77] | –
> 8.00 | – | COC(=O)c1ccc(C2(CN3Cc4ccc(OC)cc4C3=O)NC(=O)NC2=O)cc1 (centres unmarked) [Compound 30] | –
> 8.00 | – | COc1ccc2c(c1)C(=O)N(C[C@@]1(c3ccc(-c4cc(C(N)=O)ccn4)cc3)NC(=O)NC1=O)C2 [Compound 59] | –
> 8.00 | – | COc1ccc2c(c1)C(=O)N(C[C@@]1(c3ccc(-c4cncc(C(=O)NC5CC5)c4)cc3)NC(=O)NC1=O)C2 [Compound 56] | –
> 8.00 | – | COc1ccc2c(c1)C(=O)N(C[C@@]1(c3cc4ncccc4n3C(=O)OC(C)(C)C)NC(=O)NC1=O)C2 [Compound 46] | –

pKi [1] | pKi [2] | Compound | pKi
> 8.00 | 9.64 | COc1ccc2c(c1)C(=O)N(C[C@@]1(c3ccc(-c4cnc(N)c(C(N)=O)c4)cc3)NC(=O)NC1=O)C2 [Compound 68] | –
> 8.00 | – | COc1ccc2c(c1)C(=O)N(CC1(c3ccc(S(C)(=O)=O)cc3)NC(=O)NC1=O)C2 (centres unmarked) [Compound 33] | –
> 8.00 | – | COC(=O)c1cccnc1-c1ccc([C@]2(CN3Cc4ccc(OC)cc4C3=O)NC(=O)NC2=O)cc1 [Compound 57] | –
> 8.00 | – | COc1ccc2c(c1)C(=O)N(C[C@@]1(c3cc4cc(C(=O)O)cnc4o3)NC(=O)NC1=O)C2 [Compound 39] | –
> 8.00 | – | COc1ccc2c(c1)C(=O)N(C[C@@]1(c3ccc(Oc4cccc(C(=O)NCCN(C)C)c4)cc3)NC(=O)NC1=O)C2 [Compound 90] | –
> 8.00 | – | COc1ccc2c(c1)C(=O)N(C[C@@]1(c3ccc(Oc4cccc(C(=O)N(C)C)c4)cc3)NC(=O)NC1=O)C2 [Compound 88] | –
> 8.00 | 9.18 | COc1ccc2c(c1)C(=O)N(C[C@@]1(c3ccc(-c4cccc(C(N)=O)n4)cc3)NC(=O)NC1=O)C2 [Compound 76] | –
> 8.00 | – | CNC(=O)c1cccnc1-c1ccc([C@]2(CN3Cc4ccc(OC)cc4C3=O)NC(=O)NC2=O)cc1 [Compound 61] | –
> 8.00 | – | COc1ccc2c(c1)C(=O)N(C[C@@]1(c3ccc(-c4cnc(C(=O)NC5CC5)cn4)cc3)NC(=O)NC1=O)C2 [Compound 71] | –
> 8.00 | 8.40 | CNC(=O)c1ccc(Oc2ccc([C@]3(CN4Cc5ccc(OC)cc5C4=O)NC(=O)NC3=O)cc2)cc1 [Compound 84] | –
> 8.00 | 9.15 | COc1ccc2c(c1)C(=O)N(C[C@@]1(c3cc4cc(C(N)=O)cnc4o3)NC(=O)NC1=O)C2 [Compound 98] | –
> 8.00 | – | COc1ccc2c(c1)C(=O)N(CC1(CC(=O)N3CCCC3)NC(=O)NC1=O)C2 (centres unmarked) [Compound 5] | –
> 8.00 | – | COc1ccc2c(c1)C(=O)N(C[C@@]1(c3ccc(-c4cc(C#N)ccn4)cc3)NC(=O)NC1=O)C2 [Compound 73] | –
> 8.00 | – | COc1ccc2c(c1)C(=O)N(C[C@@]1(c3ccc(-c4cc(C(=O)NC5CC5)ccn4)cc3)NC(=O)NC1=O)C2 [Compound 60] | –
> 8.00 | – | COc1ccc2c(c1)C(=O)N(C[C@@]1(c3ccc(C#N)cc3)NC(=O)NC1=O)C2 [Compound 101] | –
> 8.00 | 10.05 | COc1ccc2c(c1)C(=O)N(C[C@@]1(c3ccc(-c4ncccc4C#N)cc3)NC(=O)NC1=O)C2 [Compound 66] | –
